Experimental data taken from patent US6339042B1, “Herbicidal N-cyclohexadienyl heteroaryloxyacetamides” (American Cyanamid Co., priority 1999, dated 2002).

Assays:
Conditions in all cases: three weeks after treatment
Apera spica venti [1] = experiment: Pre-emergence herbicidal evaluation, APESV; type: in vivo
Description: (§1) The treated pots are then placed on greenhouse benches, watered and cared for in accordance with conventional greenhouse procedures.

Amaranthus tuberculatus [2] = experiment: Pre-emergence herbicidal evaluation, AMATA; type: in vivo
Description: as §1

Alopecurus myosuroides [3] = experiment: Post-emergence herbicidal evaluation, ALOMY
Glycine max [4] = experiment: Pre-emergence herbicidal evaluation, GLXMA; type: in vivo
Description: as §1

Echinochloa crus-galli [5] = experiment: Pre-emergence herbicidal evaluation, ECHCG; type: in vivo
Description: as §1

Triticum aestivum [6] = experiment: Post-emergence herbicidal evaluation, TRZAW
Glycine max [7] = experiment: Post-emergence herbicidal evaluation, GLXMA
Galium aparine = experiment: Post-emergence herbicidal evaluation, GALAP
Hordeum vulgare [8] = experiment: Pre-emergence herbicidal evaluation, HORVW; type: in vivo
Description: as §1

Alopecurus myosuroides [9] = experiment: Pre-emergence herbicidal evaluation, ALOMY; type: in vivo
Description: as §1

Zea mays [10] = experiment: Pre-emergence herbicidal evaluation, ZEAMX; type: in vivo
Description: as §1

Triticum aestivum [11] = experiment: Pre-emergence herbicidal evaluation, TRZAW; type: in vivo
Description: as §1

Oryza sativum [12] = experiment: Post-emergence herbicidal evaluation, ORYSA
Description: The compounds of the invention are tested for pre- and post-emergence herbicidal activity.
Each pot is examined three weeks after treatment and phytotoxicity is assessed according to the rating system set forth below.
These acetone solutions are diluted with water and the resulting formulations applied at dosage levels equivalent of about 0.4 to 0.1 kg per hectare of test compound per pot. After spraying the plants are placed on greenhouse benches and are cared for in the usual manner, commensurate with conventional greenhouse practices.

Zea mays [13] = experiment: Post-emergence herbicidal evaluation, ZEAMX
Apera spica venti [14] = experiment: Post-emergence herbicidal evaluation, APESV
Setaria viridis [15] = experiment: Pre-emergence herbicidal evaluation, SETVI; type: in vivo
Description: as §1

Oryza sativum [16] = experiment: Pre-emergence herbicidal evaluation, ORYSA; type: in vivo
Description: as §1

Amaranthus tuberculatus [17] = experiment: Post-emergence herbicidal evaluation, AMATA; type: in vivo
Hordeum vulgare [18] = experiment: Post-emergence herbicidal evaluation, HORVW
Lolium perenne [19] = experiment: Post-emergence herbicidal evaluation, LOLPE
Setaria viridis [20] = experiment: Post-emergence herbicidal evaluation, SETVI
Echinochloa crus-galli [21] = experiment: Post-emergence herbicidal evaluation, ECHCG
Lolium perenne [22] = experiment: Pre-emergence herbicidal evaluation, LOLPE; type: in vivo
Description: as §1

Structure (SMILES): CC1=CC(N(C)C(=O)COc2nc3ccccc3o2)=CC(C)(C)C1 [Example 16]
- phytotoxicity rating APESV (Apera spica venti [1]; 0.200 kg/ha): 4 (4 - Injury)
- phytotoxicity rating APESV (Apera spica venti [1]; 0.400 kg/ha): 8 (8 - Approaching complete kill)
- phytotoxicity rating APESV (Apera spica venti [1]; 0.800 kg/ha): 9 (9 - Complete kill)
- phytotoxicity rating AMATA (Amaranthus tuberculatus [2]; 0.100 kg/ha): 0 (0 - No effect)
- phytotoxicity rating AMATA (Amaranthus tuberculatus [2]; 0.200 kg/ha): 3 (3 - Moderate effect)
- phytotoxicity rating AMATA (Amaranthus tuberculatus [2]; 0.400 kg/ha): 3 (3 - Moderate effect)
- phytotoxicity rating AMATA (Amaranthus tuberculatus [2]; 0.800 kg/ha): 7 (7 - Good herbicidal effect)
- phytotoxicity rating ALOMY (Alopecurus myosuroides [3]; 0.100 kg/ha): 2 (2 - Slight effect)
- phytotoxicity rating ALOMY (Alopecurus myosuroides [3]; 0.200 kg/ha): 5 (5 - Definite injury)
- phytotoxicity rating ALOMY (Alopecurus myosuroides [3]; 0.400 kg/ha): 7 (7 - Good herbicidal effect)
- phytotoxicity rating GLXMA (Glycine max [4]; 0.100 kg/ha): 0 (0 - No effect)
- phytotoxicity rating GLXMA (Glycine max [4]; 0.200 kg/ha): 0 (0 - No effect)
- phytotoxicity rating GLXMA (Glycine max [4]; 0.400 kg/ha): 0 (0 - No effect)
- phytotoxicity rating GLXMA (Glycine max [4]; 0.800 kg/ha): 0 (0 - No effect)
- phytotoxicity rating ECHCG (Echinochloa crus-galli [5]; 0.100 kg/ha): 5 (5 - Definite injury)
- phytotoxicity rating ECHCG (Echinochloa crus-galli [5]; 0.200 kg/ha): 6 (6 - Herbicidal effect)
- phytotoxicity rating ECHCG (Echinochloa crus-galli [5]; 0.400 kg/ha): 7 (7 - Good herbicidal effect)
- phytotoxicity rating ECHCG (Echinochloa crus-galli [5]; 0.800 kg/ha): 9 (9 - Complete kill)
- phytotoxicity rating TRZAW (Triticum aestivum [6]; 0.100 kg/ha): 0 (0 - No effect)
- phytotoxicity rating TRZAW (Triticum aestivum [6]; 0.200 kg/ha): 0 (0 - No effect)
- phytotoxicity rating TRZAW (Triticum aestivum [6]; 0.400 kg/ha): 0 (0 - No effect)
- phytotoxicity rating GLXMA (Glycine max [7]; 0.100 kg/ha): 2 (2 - Slight effect)
- phytotoxicity rating GLXMA (Glycine max [7]; 0.200 kg/ha): 3 (3 - Moderate effect)
- phytotoxicity rating GLXMA (Glycine max [7]; 0.400 kg/ha): 4 (4 - Injury)
- phytotoxicity rating GALAP (Galium aparine; 0.100 kg/ha): 3 (3 - Moderate effect)
- phytotoxicity rating GALAP (Galium aparine; 0.200 kg/ha): 3 (3 - Moderate effect)
- phytotoxicity rating GALAP (Galium aparine; 0.400 kg/ha): 4 (4 - Injury)
- phytotoxicity rating HORVW (Hordeum vulgare [8]; 0.100 kg/ha): 0 (0 - No effect)
- phytotoxicity rating HORVW (Hordeum vulgare [8]; 0.200 kg/ha): 0 (0 - No effect)
- phytotoxicity rating HORVW (Hordeum vulgare [8]; 0.400 kg/ha): 2 (2 - Slight effect)
- phytotoxicity rating HORVW (Hordeum vulgare [8]; 0.800 kg/ha): 3 (3 - Moderate effect)
- phytotoxicity rating ALOMY (Alopecurus myosuroides [9]; 0.100 kg/ha): 6 (6 - Herbicidal effect)
- phytotoxicity rating ALOMY (Alopecurus myosuroides [9]; 0.200 kg/ha): 8 (8 - Approaching complete kill)
- phytotoxicity rating ALOMY (Alopecurus myosuroides [9]; 0.400 kg/ha): 8 (8 - Approaching complete kill)
- phytotoxicity rating ALOMY (Alopecurus myosuroides [9]; 0.800 kg/ha): 9 (9 - Complete kill)
- phytotoxicity rating ZEAMX (Zea mays [10]; 0.100 kg/ha): 0 (0 - No effect)
- phytotoxicity rating ZEAMX (Zea mays [10]; 0.200 kg/ha): 0 (0 - No effect)
- phytotoxicity rating ZEAMX (Zea mays [10]; 0.400 kg/ha): 0 (0 - No effect)
- phytotoxicity rating ZEAMX (Zea mays [10]; 0.800 kg/ha): 0 (0 - No effect)
- phytotoxicity rating TRZAW (Triticum aestivum [11]; 0.100 kg/ha): 0 (0 - No effect)
- phytotoxicity rating TRZAW (Triticum aestivum [11]; 0.200 kg/ha): 0 (0 - No effect)
- phytotoxicity rating TRZAW (Triticum aestivum [11]; 0.400 kg/ha): 0 (0 - No effect)
- phytotoxicity rating TRZAW (Triticum aestivum [11]; 0.800 kg/ha): 1 (1 - Trace effect)
- phytotoxicity rating ORYSA (Oryza sativum [12]; 0.100 kg/ha): 0 (0 - No effect)
- phytotoxicity rating ORYSA (Oryza sativum [12]; 0.200 kg/ha): 0 (0 - No effect)
- phytotoxicity rating ORYSA (Oryza sativum [12]; 0.400 kg/ha): 2 (2 - Slight effect)
- phytotoxicity rating ZEAMX (Zea mays [13]; 0.100 kg/ha): 0 (0 - No effect)
- phytotoxicity rating ZEAMX (Zea mays [13]; 0.200 kg/ha): 0 (0 - No effect)
- phytotoxicity rating ZEAMX (Zea mays [13]; 0.400 kg/ha): 0 (0 - No effect)
- phytotoxicity rating APESV (Apera spica venti [14]; 0.100 kg/ha): 0 (0 - No effect)
- phytotoxicity rating APESV (Apera spica venti [14]; 0.200 kg/ha): 6 (6 - Herbicidal effect)
- phytotoxicity rating APESV (Apera spica venti [14]; 0.400 kg/ha): 4 (4 - Injury)
- phytotoxicity rating SETVI (Setaria viridis [15]; 0.100 kg/ha): 5 (5 - Definite injury)
- phytotoxicity rating SETVI (Setaria viridis [15]; 0.200 kg/ha): 8 (8 - Approaching complete kill)
- phytotoxicity rating SETVI (Setaria viridis [15]; 0.400 kg/ha): 9 (9 - Complete kill)
- phytotoxicity rating SETVI (Setaria viridis [15]; 0.800 kg/ha): 9 (9 - Complete kill)
- phytotoxicity rating ORYSA (Oryza sativum [16]; 0.100 kg/ha): 0 (0 - No effect)
- phytotoxicity rating ORYSA (Oryza sativum [16]; 0.200 kg/ha): 0 (0 - No effect)
- phytotoxicity rating ORYSA (Oryza sativum [16]; 0.400 kg/ha): 2 (2 - Slight effect)
- phytotoxicity rating ORYSA (Oryza sativum [16]; 0.800 kg/ha): 5 (5 - Definite injury)
- phytotoxicity rating AMATA (Amaranthus tuberculatus [17]; 0.100 kg/ha): 3 (3 - Moderate effect)
- phytotoxicity rating AMATA (Amaranthus tuberculatus [17]; 0.400 kg/ha): 3 (3 - Moderate effect)
- phytotoxicity rating HORVW (Hordeum vulgare [18]; 0.100 kg/ha): 0 (0 - No effect)
- phytotoxicity rating HORVW (Hordeum vulgare [18]; 0.200 kg/ha): 0 (0 - No effect)
- phytotoxicity rating HORVW (Hordeum vulgare [18]; 0.400 kg/ha): 2 (2 - Slight effect)
- phytotoxicity rating LOLPE (Lolium perenne [19]; 0.100 kg/ha): 4 (4 - Injury)
- phytotoxicity rating LOLPE (Lolium perenne [19]; 0.200 kg/ha): 6 (6 - Herbicidal effect)
- phytotoxicity rating LOLPE (Lolium perenne [19]; 0.400 kg/ha): 7 (7 - Good herbicidal effect)
- phytotoxicity rating SETVI (Setaria viridis [20]; 0.100 kg/ha): 0 (0 - No effect)
- phytotoxicity rating SETVI (Setaria viridis [20]; 0.200 kg/ha): 0 (0 - No effect)
- phytotoxicity rating SETVI (Setaria viridis [20]; 0.400 kg/ha): 0 (0 - No effect)
- phytotoxicity rating ECHCG (Echinochloa crus-galli [21]; 0.100 kg/ha): 0 (0 - No effect)
- phytotoxicity rating ECHCG (Echinochloa crus-galli [21]; 0.200 kg/ha): 0 (0 - No effect)
- phytotoxicity rating ECHCG (Echinochloa crus-galli [21]; 0.400 kg/ha): 0 (0 - No effect)
- phytotoxicity rating LOLPE (Lolium perenne [22]; 0.100 kg/ha): 0 (0 - No effect)
- phytotoxicity rating LOLPE (Lolium perenne [22]; 0.200 kg/ha): 0 (0 - No effect)
- phytotoxicity rating LOLPE (Lolium perenne [22]; 0.400 kg/ha): 3 (3 - Moderate effect)
- phytotoxicity rating LOLPE (Lolium perenne [22]; 0.800 kg/ha): 8 (8 - Approaching complete kill)
